Read-outs that look alike come from different tables or passages of the source. Ends that are not written are not given here.
What was measured:
Assay type in all cases: cell-based
Escherichia coli CIP548 = experiment: Bacterial growth inhibition test in Petri dish (solid medium), MIC; details: MIC extrapolated from inhibition diameter vs log10 concentration
Salmonella sp. = experiment: as above; details: MIC extrapolated from inhibition diameter vs log10 concentration
Protocol: Deux tests ont été utilisés pour mesurer l'activité antibactérienne des pseudopeptides, un test d'inhibition de la croissance bactérienne en microplaques (de 96 puits) en milieu liquide et un test d'inhibition de la croissance bactérienne en boîte de Pétri en milieu solide. • * Test en microplaques: La culture bactérienne à tester est prélevée en phase exponentielle, puis diluée au 1/500^ème dans du milieu liquide TSB frais. Chaque puits de la microplaque est rempli avec 100 µl de suspension bactérienne diluée. Dans le premier puits, 100 µl de l'échantillon de pseudopeptide à tester est ajouté à la suspension bactérienne, puis l'échantillon est dilué de 2 en 2 en transférant d'un puits à l'autre 100 µl de suspension. La lecture de la microplaque se fait en mesurant la densité optique à […] (DO600nm) après 24h d'incubation à 28°C ou 37°C selon les bactéries cibles. Connaissant la concentration en pseudopeptide de l'échantillon de départ, ce test permet de déterminer la valeur de la CMI (Concentration Minimale d'Inhibition de la croissance bactérienne). Dans ce test, la CMI correspond à la concentration de l'échantillon pour lequel la DO600nm est inférieure à celle du témoin de culture. • * Test en boîte de Pétri: La culture bactérienne à tester est prélevée en phase exponentielle, puis incorporée à 10 ml d'une gélose dite "sous-couche" (Agarose 1% poids/vol; NaCl 100 mM; Trypcase 0.03 % poids/vol; Tampon phosphate 10 mM pH7.4) à raison de 2.10^5 bactéries/ml. Le mélange est coulé dans une boîte de Pétri ordinaire. 9 puits d'environ 10 µl de volume sont formés dans la "sous-couche" à l'aide d'un embout de pipette stérile de 10 ml. Ces puits sont remplis avec une série de dilutions des pseudopeptides à tester (concentration initiale 500 µg/ml, et dilution de deux en deux jusqu'à 1,95 µg/ml). Après diffusion à température ambiante pendant 2h, une gélose dite "sur-couche" (Agarose 1% wt/vol; Trypcase 6 % wt/vol; Tampon phosphate 10 mM pH7.4) est ajoutée sur la sous-couche à raison de 5 à 10 ml. Après solidification, l'ensemble est mis à incuber pendant une nuit. Le diamètre d'inhibition de la culture bactérienne autour de chaque puits est mesuré en mm; il existe une relation linéaire entre le diamètre d'inhibition et le log10 de la concentration en pseudopeptide qui permet de déterminer par extrapolation la valeur de la CMI.
Une première série de résultats a été obtenue en utilisant le test en boîte de Pétri vis-à-vis de bactéries non pathogènes issues de la collection de Travaux pratiques du laboratoire de Pathologie Comparée de l'Université de Montpellier (France). Dans cette série, les pseudopeptides des pics 5, 7, 8,10 et 11 ont été testés (Tableau 4).

Klebsiella pneumoniae = experiment: as above; details: MIC extrapolated from inhibition diameter vs log10 concentration
[1] = tested on: Proteus vulgaris CIP58.60; experiment: as above; details: MIC extrapolated from inhibition diameter vs log10 concentration
Serratia entomophila = experiment: as above; details: MIC extrapolated from inhibition diameter vs log10 concentration
Staphylococcus aureus = experiment: as above; details: MIC extrapolated from inhibition diameter vs log10 concentration
Pseudomonas fluorescens = experiment: as above; details: MIC extrapolated from inhibition diameter vs log10 concentration
Bacillus megaterium = experiment: as above; details: MIC extrapolated from inhibition diameter vs log10 concentration
[2] = tested on: Staphylococcus epidermidis; experiment: as above; details: MIC extrapolated from inhibition diameter vs log10 concentration
Alternaria brassicae = experiment: Antifungal growth inhibition test in liquid medium
Botrytis cinerea sp = experiment: Antifungal growth inhibition test in liquid medium
Botrytis cinerea myc = experiment: Antifungal growth inhibition test in liquid medium
Cladosporium sp = experiment: Antifungal growth inhibition test in liquid medium
Cladosporium myc = experiment: Antifungal growth inhibition test in liquid medium
[3] = tested on: Helminthosporium teres sp; experiment: Antifungal growth inhibition test in liquid medium
Rhizoctonia solani myc = experiment: Antifungal growth inhibition test in liquid medium
Fusarium culmorum sp = experiment: Antifungal growth inhibition test in liquid medium
Excerpt: (§1) Les composés des pics 5, 7 et 8 de la figure 1 ont été testées vis-à-vis d'un ensemble de champignons phytopathogènes. Trois doses (10, 20, et 40 ppm) ont été employées pour chacun des composés.
(§2) L'activité antifongique a été détectée par un test d'inhibition de croissance en milieu liquide. Les spores des champignons à tester ont été mises en suspension dans un milieu de culture de type "Pomme de terre-Glucose". De préférence, on utilise 12 g de milieu Potato Dextrose Broth (Difco) pour 1 litre d'eau déminéralisée. Deux antibiotiques ont été rajoutés au milieu de culture: la tétracycline (concentration finale de 10 µg/ml) et la céfotaxime (100 µg/ml). On dépose 10 µl de chaque composé à tester dans des plaques de microtitration en présence de 90 µl de milieu de culture contenant les spores (à une concentration finale de 10^4 spores/ml). L'incubation a été réalisée en chambre humide à 30°C durant 48 heures. La croissance fongique a été observée au microscope photonique après 24 h et quantifiée après 48 heures par mesure de l'absorbance à 600 nm à l'aide d'un spectrophotomètre lecteur de plaque de microtitration. L'activité des composés contre les champignons phytopathogènes est exprimée par un pourcentage d'inhibition de croissance correspondant à 100 x (1 - absorbance avec produit/ absorbance du témoin sans produit), l'absorbance étant mesurée à 600 nm, 5 jours après le début de l'expérience.

Phytophthora myc = experiment: Antifungal growth inhibition test in liquid medium
Excerpt: as §1, §2

Piricularia oryzae sp = tested on: Piricularia oryzae sp
Septoria tritici sp = experiment: Antifungal growth inhibition test in liquid medium

Substance “Composé 11: pseudopeptide du pic n° 11 de Xenorhabdus nematophilus F1; Famille 1: Lys Lys Lys Lys Lys Gly; 1080 Da; isomère de masse du pic 7 (KKKKKG; also: pseudopeptide modifications, not given here)” has a CMI (Escherichia coli CIP548) of 15 µg/mL, a CMI (Salmonella sp.) of 15 µg/mL and a CMI (Klebsiella pneumoniae) of 30 µg/mL. For the same substance, the CMI [1] was 200 µg/mL, the CMI (Serratia entomophila) was 30 µg/mL and the CMI (Staphylococcus aureus) was 7,5 µg/ml. For the same substance, the CMI (Pseudomonas fluorescens) was 1,5 µg/ml and the CMI (Bacillus megaterium) was 0,75 µg/ml.

For Polymixine [reference compound], the CMI (Escherichia coli CIP548) was 0,25 µg/ml, the CMI (Salmonella sp.) was 0,5 µg/ml and the CMI [1] was 50 µg/mL. It also gave a CMI (Staphylococcus aureus) of 20 µg/mL and a CMI [2] of 20 µg/mL.

With “Composé 7: pseudopeptide du pic n° 7 de Xenorhabdus nematophilus F1; Famille 2: Lys Lys Lys Lys Arg Gly; 1080 Da; isomère de masse du pic 11 (KKKKRG; also: pseudopeptide modifications)” the “pourcentage d'inhibition de croissance” value (Alternaria brassicae; 10 ppm) was 25%, the “pourcentage d'inhibition de croissance” value (Alternaria brassicae; 20 ppm) was 47% and the “pourcentage d'inhibition de croissance” value (Alternaria brassicae; 40 ppm) was 83%. For the same substance, the “pourcentage d'inhibition de croissance” value (Botrytis cinerea sp; 10 ppm) was 53%, the “pourcentage d'inhibition de croissance” value (Botrytis cinerea sp; 20 ppm) was 12% and the “pourcentage d'inhibition de croissance” value (Botrytis cinerea sp; 40 ppm) was 83%. The “pourcentage d'inhibition de croissance” value (Botrytis cinerea myc; 10 ppm) was 0%, the “pourcentage d'inhibition de croissance” value (Botrytis cinerea myc; 20 ppm) was 6% and the “pourcentage d'inhibition de croissance” value (Botrytis cinerea myc; 40 ppm) was 34%. The “pourcentage d'inhibition de croissance” value (Cladosporium sp; 10 ppm) was 74%, the “pourcentage d'inhibition de croissance” value (Cladosporium sp; 20 ppm) was 95% and the “pourcentage d'inhibition de croissance” value (Cladosporium sp; 40 ppm) was 95%. The “pourcentage d'inhibition de croissance” value (Cladosporium myc; 10 ppm) was 0%, the “pourcentage d'inhibition de croissance” value (Cladosporium myc; 20 ppm) was 40% and the “pourcentage d'inhibition de croissance” value (Cladosporium myc; 40 ppm) was 91%. The “pourcentage d'inhibition de croissance” value ([3]; 10 ppm) was 33%, the “pourcentage d'inhibition de croissance” value ([3]; 20 ppm) was 47% and the “pourcentage d'inhibition de croissance” value ([3]; 40 ppm) was 80%. For the same substance, the “pourcentage d'inhibition de croissance” value (Rhizoctonia solani myc; 10 ppm) was 6%, the “pourcentage d'inhibition de croissance” value (Rhizoctonia solani myc; 20 ppm) was 7% and the “pourcentage d'inhibition de croissance” value (Rhizoctonia solani myc; 40 ppm) was 64%. For the same substance, the “pourcentage d'inhibition de croissance” value (Fusarium culmorum sp; 10 ppm) was 66%, the “pourcentage d'inhibition de croissance” value (Fusarium culmorum sp; 20 ppm) was 97% and the “pourcentage d'inhibition de croissance” value (Fusarium culmorum sp; 40 ppm) was 97%. For the same substance, the “pourcentage d'inhibition de croissance” value (Phytophthora myc; 10 ppm) was 71%, the “pourcentage d'inhibition de croissance” value (Phytophthora myc; 20 ppm) was 81% and the “pourcentage d'inhibition de croissance” value (Phytophthora myc; 40 ppm) was 78%. For the same substance, the “pourcentage d'inhibition de croissance” value (Piricularia oryzae sp; 10 ppm) was 12%, the “pourcentage d'inhibition de croissance” value (Piricularia oryzae sp; 20 ppm) was 15% and the “pourcentage d'inhibition de croissance” value (Piricularia oryzae sp; 40 ppm) was 21%. For the same substance, the “pourcentage d'inhibition de croissance” value (Septoria tritici sp; 10 ppm) was 0%, the “pourcentage d'inhibition de croissance” value (Septoria tritici sp; 20 ppm) was 86% and the “pourcentage d'inhibition de croissance” value (Septoria tritici sp; 40 ppm) was 89%. The CMI (Escherichia coli CIP548) was 15 µg/mL, the CMI (Salmonella sp.) was 15 µg/mL and the CMI (Klebsiella pneumoniae) was 30 µg/mL. It also gave a CMI [1] of 100 µg/mL, a CMI (Serratia entomophila) of 60 µg/mL and a CMI (Staphylococcus aureus) of 15 µg/mL. The CMI (Pseudomonas fluorescens) was 1,5 µg/ml and the CMI (Bacillus megaterium) was 1,5 µg/ml.

With “Composé 10: pseudopeptide du pic n° 10 de Xenorhabdus nematophilus F1; Famille 2: Lys Lys Lys Lys Arg Gly; 1094 Da; structure en Figure 3 (KKKKRG; also: pseudopeptide modifications, not given here)” the CMI (Escherichia coli CIP548) was 7,5 µg/ml, the CMI (Salmonella sp.) was 30 µg/mL and the CMI (Klebsiella pneumoniae) was 15 µg/mL. For the same substance, the CMI [1] was 200 µg/mL, the CMI (Serratia entomophila) was 15 µg/mL and the CMI (Staphylococcus aureus) was 7,5 µg/ml. The CMI (Pseudomonas fluorescens) was 1,5 µg/ml and the CMI (Bacillus megaterium) was 0,75 µg/ml.
